# In PubChem BioAssay (NCI):
#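 Interpolation was linear, between the two tested concentrations surrounding the appropriate level; five concentrations were tested over 48 hours in 96-well plates. Definition used: TGI = concentration required for complete inhibition of growth.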
# Tests used:
# Assay in all cases: NCI-60 cell line screen, 48 h
# [1] = system: HCT-116 colon
# [2] = system: NCI-H460 lung
# [3] = system: MCF7 breast
# [4] = system: SK-OV-3 ovarian
# [5] = system: SF-268 CNS
# [6] = system: HT29 colon
# [7] = system: NCI-H226 lung
# [8] = system: SW-620 colon
# [9] = system: HCT-15 colon
# [10] = system: SK-MEL-2 melanoma
# [11] = system: MDA-MB-435
# [12] = system: KM12 colon
# [13] = system: NCI-H522 lung
# [14] = system: HS 578T breast
# [15] = system: UACC-62 melanoma
# [16] = system: 786-0 renal
# [17] = system: U251 CNS
# [18] = system: NCI-H23 lung
# [19] = system: SNB-75 CNS
# [20] = system: SN12C renal
# [21] = system: SF-295 CNS
# [22] = system: SK-MEL-5 melanoma
# [23] = system: TK-10 renal
# [24] = system: HOP-62 NSCLC
# [25] = system: OVCAR-3 ovarian
# [26] = system: OVCAR-8 ovarian
# [27] = system: MDA-N
# [28] = system: SNB-19 CNS
# [29] = system: ACHN renal
# [30] = system: HOP-92 NSCLC
# [31] = system: LOX IMVI melanoma
# [32] = system: COLO 205 colon
# [33] = system: PC-3 prostate
# [34] = system: MDA-MB-231 breast
# [35] = system: DU-145 prostate
# [36] = system: T-47D breast
# [37] = system: IGROV1 ovarian
# [38] = system: UO-31 renal
# [39] = system: A549 NSCLC
# [40] = system: MOLT-4 leukemia
# [41] = system: A498 renal
# [42] = system: EKVX NSCLC
# [43] = system: UACC-257 melanoma
# [44] = system: M14 melanoma
# [45] = system: NCI/ADR-RES ovarian
# [46] = system: OVCAR-5 ovarian
# [47] = system: BT-549 breast
# [48] = system: SK-MEL-28 melanoma
# [49] = system: HCC-2998 colon
# [50] = system: MALME-3M melanoma
# [51] = system: SF-539 CNS
# [52] = system: RXF 393 renal
# [53] = system: CCRF-CEM leukemia
# [54] = system: RPMI-8226 leukemia
# [55] = system: HL-60(TB) leukemia
# [56] = system: K-562 leukemia
# [57] = system: CAKI-1 renal
# [58] = system: OVCAR-4 ovarian
# [59] = system: SR leukemia
structure (smiles),measurement,setting,value
O=C(/C=C/c1ccc(O)c(O)c1)OCCc1ccc2ccccc2c1,TGI,[1],17.9 µM
same,TGI,[2],23.7 µM
same,TGI,[3],8.91 µM
same,TGI,[4],26.3 µM
same,TGI,[5],27 µM
same,TGI,[6],25.6 µM
same,TGI,[7],32.3 µM
same,TGI,[8],20.7 µM
same,TGI,[9],10.2 µM
same,TGI,[10],4.35 µM
same,TGI,[11],6.63 µM
same,TGI,[12],12.9 µM
same,TGI,[13],8.35 µM
same,TGI,[14],24.1 µM
same,TGI,[15],13.9 µM
same,TGI,[16],20.9 µM
same,TGI,[17],23.8 µM
same,TGI,[18],14.7 µM
same,TGI,[19],8.22 µM
same,TGI,[20],17.8 µM
same,TGI,[21],23.7 µM
same,TGI,[22],13.2 µM
same,TGI,[23],20.4 µM
same,TGI,[24],26.4 µM
same,TGI,[25],12.4 µM
same,TGI,[26],26.6 µM
same,TGI,[27],5.45 µM
same,TGI,[28],25.9 µM
same,TGI,[29],15.1 µM
same,TGI,[30],19.6 µM
same,TGI,[31],20.8 µM
same,TGI,[32],16.4 µM
same,TGI,[33],20.5 µM
same,TGI,[34],24.3 µM
same,TGI,[35],24.3 µM
same,TGI,[36],18.7 µM
same,TGI,[37],10.4 µM
same,TGI,[38],13.1 µM
same,TGI,[39],24.9 µM
same,TGI,[40],11.3 µM
same,TGI,[41],28.4 µM
same,TGI,[42],28.7 µM
same,TGI,[43],23.3 µM
same,TGI,[44],16.9 µM
same,TGI,[45],18.3 µM
same,TGI,[46],29.7 µM
same,TGI,[47],15.7 µM
same,TGI,[48],21.8 µM
same,TGI,[49],30.9 µM
same,TGI,[50],23.1 µM
same,TGI,[51],19.1 µM
same,TGI,[52],21.6 µM
same,TGI,[53],23.8 µM
NC1=CC(=O)c2c(O)ccc(O)c2C1=O,TGI,[54],44.9 µM
same,TGI,[1],22.3 µM
same,TGI,[2],25.2 µM
same,TGI,[3],18.6 µM
same,TGI,[4],> 94.5 µM
same,TGI,[5],> 70.1 µM
same,TGI,[6],19.8 µM
same,TGI,[7],> 100 µM
same,TGI,[8],15.2 µM
same,TGI,[9],> 56.1 µM
same,TGI,[55],6.83 µM
same,TGI,[10],32.6 µM
same,TGI,[56],> 50.5 µM
same,TGI,[11],31.6 µM
same,TGI,[12],> 78.7 µM
same,TGI,[13],18 µM
same,TGI,[14],68.3 µM
same,TGI,[15],26.5 µM
same,TGI,[16],21.8 µM
same,TGI,[17],33.9 µM
same,TGI,[18],27.9 µM
same,TGI,[19],83.3 µM
same,TGI,[20],31.5 µM
same,TGI,[21],40.9 µM
same,TGI,[22],20.3 µM
same,TGI,[23],> 84.8 µM
same,TGI,[24],64.9 µM
same,TGI,[25],8.45 µM
same,TGI,[26],33 µM
same,TGI,[27],13.1 µM
same,TGI,[28],> 65.9 µM
same,TGI,[29],34.2 µM
same,TGI,[30],38.2 µM
same,TGI,[31],33.1 µM
same,TGI,[32],20.9 µM
same,TGI,[33],> 90.6 µM
same,TGI,[34],38.5 µM
same,TGI,[57],66.8 µM
same,TGI,[35],32.1 µM
same,TGI,[36],35.7 µM
same,TGI,[37],29.5 µM
same,TGI,[38],15.7 µM
same,TGI,[39],49.6 µM
same,TGI,[40],> 34.9 µM
same,TGI,[41],47.5 µM
same,TGI,[58],23.1 µM
same,TGI,[42],36.2 µM
same,TGI,[43],30.2 µM
same,TGI,[44],22.3 µM
same,TGI,[45],68.2 µM
same,TGI,[46],35.3 µM
same,TGI,[47],30.9 µM
same,TGI,[48],38 µM
same,TGI,[49],24.2 µM
same,TGI,[50],7.08 µM
same,TGI,[51],36 µM
same,TGI,[52],22.1 µM
same,TGI,[53],11.4 µM
CN1CSC(=S)N(c2cccc(C(F)(F)F)c2)C1,TGI,[54],39.4 µM
same,TGI,[1],> 100 µM
same,TGI,[2],42.6 µM
same,TGI,[3],33.3 µM
same,TGI,[4],> 100 µM
same,TGI,[5],53 µM
same,TGI,[6],47.7 µM
same,TGI,[7],61.8 µM
same,TGI,[8],> 100 µM
same,TGI,[9],38 µM
same,TGI,[55],59 µM
same,TGI,[10],43.3 µM
same,TGI,[56],59.6 µM
same,TGI,[11],51.9 µM
same,TGI,[12],50.7 µM
same,TGI,[13],30.8 µM
same,TGI,[14],82.2 µM
same,TGI,[15],31.7 µM
same,TGI,[16],73.6 µM
same,TGI,[17],> 100 µM
same,TGI,[18],33.2 µM
same,TGI,[19],> 100 µM
same,TGI,[20],> 100 µM
same,TGI,[21],51.2 µM
same,TGI,[22],31.4 µM
same,TGI,[23],72.3 µM
same,TGI,[24],70 µM
same,TGI,[25],46.7 µM
same,TGI,[26],74.5 µM
same,TGI,[27],91.2 µM
same,TGI,[28],61 µM
same,TGI,[59],52.5 µM
same,TGI,[29],36.5 µM
same,TGI,[30],50.5 µM
same,TGI,[31],43.1 µM
same,TGI,[32],37.2 µM
same,TGI,[33],69.1 µM
same,TGI,[57],74 µM
same,TGI,[35],> 100 µM
same,TGI,[36],> 100 µM
same,TGI,[37],37.3 µM
same,TGI,[38],45.3 µM
same,TGI,[39],73 µM
same,TGI,[40],57 µM
same,TGI,[41],82.1 µM
same,TGI,[58],37.5 µM
same,TGI,[42],67.7 µM
same,TGI,[43],50.7 µM
same,TGI,[44],33.8 µM
same,TGI,[45],73.4 µM
same,TGI,[46],37 µM
same,TGI,[47],44.2 µM
same,TGI,[48],52 µM
same,TGI,[49],32.9 µM
same,TGI,[50],35.2 µM
same,TGI,[51],52 µM
same,TGI,[52],> 100 µM
same,TGI,[53],> 100 µM
COCC([C@@H](O)C(O)C(=O)NCC[C@@H](C)c1nc(/C=C/CC2OC3(C[C@H](O)C2C)OC(C(C[C@H](O)C(C)[C@H](O)C(C)/C=C(C)/C(C)=C/C=C/C(C)=C/C#N)OC)[C@@H](OP(=O)(O)O)C3(C)C)co1)N(C)C (stereo partly specified),TGI,[1],0.000315 µM
same,TGI,[2],0.000272 µM
same,TGI,[3],0.000347 µM
same,TGI,[4],0.00154 µM
same,TGI,[5],0.000344 µM
same,TGI,[6],0.000297 µM
same,TGI,[7],0.000282 µM
same,TGI,[8],0.000327 µM
same,TGI,[9],0.000462 µM
same,TGI,[55],0.00207 µM
same,TGI,[10],0.000333 µM
same,TGI,[11],0.000336 µM
same,TGI,[12],0.000331 µM
same,TGI,[13],0.000308 µM
same,TGI,[14],0.000391 µM
same,TGI,[15],0.000341 µM
same,TGI,[16],0.000314 µM
same,TGI,[17],0.000332 µM
same,TGI,[18],0.0021 µM
same,TGI,[19],0.000327 µM
same,TGI,[20],0.00034 µM
same,TGI,[21],0.000328 µM
same,TGI,[23],0.00024 µM
same,TGI,[25],0.000326 µM
same,TGI,[26],0.000423 µM
same,TGI,[27],0.000358 µM
same,TGI,[28],0.000343 µM
same,TGI,[29],0.000394 µM
same,TGI,[30],0.000316 µM
same,TGI,[31],0.000561 µM
same,TGI,[32],0.000309 µM
same,TGI,[33],0.000321 µM
same,TGI,[34],0.000562 µM
same,TGI,[57],0.000325 µM
same,TGI,[35],0.000322 µM
same,TGI,[36],0.00195 µM
same,TGI,[37],0.000296 µM
same,TGI,[38],0.00279 µM
same,TGI,[39],0.00147 µM
same,TGI,[40],0.00248 µM
same,TGI,[41],0.00333 µM
same,TGI,[58],0.00274 µM
same,TGI,[42],0.000326 µM
same,TGI,[43],0.00232 µM
same,TGI,[44],0.000323 µM
same,TGI,[45],0.00258 µM
same,TGI,[46],0.000345 µM
same,TGI,[47],0.000312 µM
same,TGI,[48],0.000323 µM
same,TGI,[49],0.000325 µM
same,TGI,[50],0.000316 µM
same,TGI,[51],0.00034 µM
